Results on 78 molecules are retold here after PubChem BioAssay AID1645862 (Buhrlage Lab, Dana-Farber Cancer Institute and Novartis …, 2021).

pIC50: −log10 of the molar value. Activity calls are given as the source filed them. The rule behind the calls is not given here. Bridge positions count the residues as written; N and C are the ends. Peptide text beside a SMILES is read from it. * marks the point of attachment. ξ: configuration not given here. Pentadecanoyl(3ξ-OH,15-Gua) = N=C(N)NCCCCCCCCCCCCC(O)CC(=O)*

The test has as its target Ubiquitin carboxyl-terminal hydrolase 8 (Homo sapiens) (UniProt P40818). Description: Ubiquitin-specific protease 8 inhibitors, concentration-effect, biochemical, validation of initial actives (AID 1645862).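 Note: potency reflects inhibition of USP8 cleavage of a ubiquitin rhodamine substrate.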 To be noted: recombinant USP8 deubiquitinase activity assay.

Ubiquitin carboxyl-terminal hydrolase 8 (Homo sapiens), sequence (P40818 whole entry, looked up): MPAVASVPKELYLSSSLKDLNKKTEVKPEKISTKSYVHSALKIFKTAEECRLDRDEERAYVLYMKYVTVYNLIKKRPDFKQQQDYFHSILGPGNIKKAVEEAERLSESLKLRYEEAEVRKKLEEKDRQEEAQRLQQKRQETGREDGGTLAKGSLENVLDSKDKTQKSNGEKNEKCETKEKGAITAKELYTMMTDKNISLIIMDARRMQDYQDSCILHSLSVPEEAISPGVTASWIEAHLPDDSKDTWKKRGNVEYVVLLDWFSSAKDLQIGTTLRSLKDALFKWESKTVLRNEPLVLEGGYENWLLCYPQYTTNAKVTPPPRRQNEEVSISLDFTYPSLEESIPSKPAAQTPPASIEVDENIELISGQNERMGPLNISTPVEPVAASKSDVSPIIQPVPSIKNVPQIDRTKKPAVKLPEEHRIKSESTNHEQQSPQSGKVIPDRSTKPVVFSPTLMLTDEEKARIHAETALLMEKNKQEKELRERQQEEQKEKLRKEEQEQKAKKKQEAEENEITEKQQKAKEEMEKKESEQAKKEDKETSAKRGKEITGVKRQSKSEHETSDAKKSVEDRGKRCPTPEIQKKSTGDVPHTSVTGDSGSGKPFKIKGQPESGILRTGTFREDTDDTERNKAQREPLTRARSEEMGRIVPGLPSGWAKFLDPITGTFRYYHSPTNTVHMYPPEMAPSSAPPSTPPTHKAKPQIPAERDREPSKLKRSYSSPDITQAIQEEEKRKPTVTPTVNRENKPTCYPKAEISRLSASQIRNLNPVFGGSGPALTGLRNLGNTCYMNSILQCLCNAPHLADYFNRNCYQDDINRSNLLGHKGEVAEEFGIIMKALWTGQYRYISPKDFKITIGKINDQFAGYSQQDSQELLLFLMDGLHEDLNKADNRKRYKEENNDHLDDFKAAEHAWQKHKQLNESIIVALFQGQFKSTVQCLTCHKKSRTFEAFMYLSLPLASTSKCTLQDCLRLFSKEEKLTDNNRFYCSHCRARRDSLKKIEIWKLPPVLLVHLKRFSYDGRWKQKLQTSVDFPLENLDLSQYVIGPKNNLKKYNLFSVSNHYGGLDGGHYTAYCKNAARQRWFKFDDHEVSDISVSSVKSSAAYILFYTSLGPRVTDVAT

By IC50 is commonly meant the midpoint of a concentration-inhibition curve. Turning to `Cc1cc(NC(=O)CN2CCCN(S(=O)(=O)c3ccc(F)cc3)CC2)ccc1Br`, the IC50 is > 40 µM (inactive).

The term pIC50 denotes the negative decadic logarithm of the IC50, by convention in mol/L. In the case of `Cc1ccc(Cn2cc(C(=O)Nc3ccccc3C(N)=O)ccc2=O)cc1`, the pIC50 was 5.13.

Take `Cc1ccc(C2c3[nH]c4ccccc4c3C[C@H]3C(=O)N(c4ccc(C(=O)NCCc5ccccc5)cc4)C(=O)N23)cc1` (stereo partly drawn): the IC50 is > 40 µM (inactive).

As to `O=C(COc1ccccc1-c1nnc(-c2ccccc2)o1)NCCc1ccco1`, the pIC50 is 4.54.

As to `CCCc1ccc(C(=O)[C@@H]2[C@@H](C(=O)c3cccs3)N3c4ccc(C)cc4C(C)=C[C@@H]3[C@@]23C(=O)Nc2ccccc23)cc1`, the IC50 was > 40 µM (inactive).

Regarding `Cc1ccnc(Nc2nc(-c3ccccc3)c3cc(Cl)ccc3n2)n1`, the IC50 is > 40 µM (inactive).

Take `COc1cc(-c2ccccc2)c(O)c(O)c1-c1ccccc1`: the pIC50 is 4.80.

With `CC(C)c1ccc(NC(=O)COC(=O)c2ccc(NS(=O)(=O)c3ccc4c(c3)OCCO4)cc2)cc1`, the IC50 was > 40 µM (inactive).

As to `O=c1c2[nH]c3ccccc3c2ncn1CCC1=CCCCC1`, the IC50 is > 40 µM (inactive).

With `Cc1c(OCC(=O)NCc2ccccc2Cl)ccc2c3c(c(=O)oc12)CCC3`, the IC50 was > 40 µM (inactive).

For the molecule `CCn1c(SCC(=O)Nc2ccc(C)c(Cl)c2)nnc1-c1ccc2c(c1)OCCO2`, the IC50 is > 40 µM (inactive).

With `COc1ccc(-c2nc(-c3cn(-c4ccccc4)nn3)no2)c(OC)c1`, the IC50 was > 40 µM (inactive).

For `Cc1c(C#N)c2ccccc2n1CC(=O)NCc1ccc2c(c1)OCO2`, the IC50 is > 40 µM (inactive).

On to `O=C(CCc1nnc2n(Cc3ccccc3)c(=O)c3ccccc3n12)NCc1ccc2c(c1)OCO2`, for which the IC50 was > 40 µM (inactive).

As to `O=C(Nc1ccc(Br)cc1F)c1ccc(S(=O)(=O)N2CCCC2)cc1`, the IC50 is > 40 µM (inactive).

As for `Cc1cc(C)c(C#N)c(N2CCN(CCOc3ccc(Cl)cc3)CC2)n1`, the IC50 is > 40 µM (inactive).

In the case of `Cc1ccc(NC(=O)Cc2sc(Nc3ccc(C)cc3)nc2O)cc1`, the IC50 is > 40 µM (inactive).

For the molecule `COc1ccc(-c2cc3c(=O)n(CC(=O)NCc4ccccc4)ncn3n2)cc1`, the IC50 is > 40 µM (inactive).

As to `CC1NC(=O)C(CC(N)=O)NC(=O)C(C(C)O)NC(=O)C(Cc2ccc(O)cc2)NC(=O)C(C(C)C)NC(=O)C(NC(=O)CC(O)CCCCCCCCCCCCN=C(N)N)C(C)OC1=O` (stereo not drawn) ({Pentadecanoyl(3ξ-OH,15-Gua)}-TVYTNA; ester 1-C; configuration not given here), the IC50 is > 40 µM (inactive).

Regarding `COc1ccc(NC(=O)Cn2cc(C(=O)c3ccccc3)c(=O)c3cc(Cl)ccc32)cc1OC`, the IC50 was > 40 µM (inactive).

As for `CCCCNC(=O)CSc1nnc(-c2cc3ccccc3n2C)o1`, the IC50 is > 40 µM (inactive).

Consider `O=c1[nH]c2ccc(S(=O)(=O)Nc3ccc(O)c4ccccc34)cc2[nH]1`, for which the pIC50 was 4.95.

For `CCOc1ccc2c(c1)c(=O)c(C(=O)c1ccccc1)cn2CC(=O)Nc1ccccc1`, the IC50 is > 40 µM (inactive).

For `CCn1cc2c(n1)c(=O)n(Cc1ccccc1)c(=O)n2CC(=O)Nc1ccc(C)cc1C`, the pIC50 is 4.61.

For the molecule `CC(=O)O[C@@H](C/C=C(\C)C(=O)O)[C@@H](C)[C@H]1C[C@H](OC(C)=O)[C@@]2(C)C3=CC[C@H]4C(C)(C)[C@H](O)CC[C@]4(C)C3=CC[C@]12C`, the IC50 was > 40 µM (inactive).

`CS(=O)(=O)c1cccc(-c2nnc(NC(=O)c3ccc(Cc4ccccc4)cc3)o2)c1`: the IC50 is > 40 µM (inactive).

As to `COc1cc(NC(=O)Cn2nc(-c3ccc(F)cc3)ccc2=O)ccc1-n1cnnn1`, the IC50 was > 40 µM (inactive).

On to `Cc1cc(Nc2ccc(C(=O)NCc3ccco3)cc2)n2nc(-c3cccnc3)nc2n1`, for which the IC50 is > 40 µM (inactive).

As to `COc1ccc(/C=C/C(=O)Nc2ccc(Cl)c(-c3nc4ncccc4o3)c2)cc1`, the IC50 was > 40 µM (inactive).

Turning to `CCc1noc(-c2ccn3c(CC(=O)Nc4ccccc4C)nnc3c2)n1`, the pIC50 is 4.78.

For `O=C(Nc1ccc(-c2nc3ccccc3o2)cc1)c1ccc(S(=O)(=O)N2CCc3ccccc3C2)cc1`, the IC50 was > 40 µM (inactive).

With `COc1ccc(S(=O)(=O)N2CCc3ccccc32)cc1C(=O)Nc1ccc2c(c1)NC(=O)C(C)O2` (stereo not drawn), the IC50 is > 40 µM (inactive).

In the case of `Cc1ccc(NC(=O)Cc2nnc3c(-c4nc(C5CC5)no4)cccn23)cc1`, the pIC50 was 4.73.

On to `C/C(=C\Cc1c(O)cc(C)c(C=O)c1O)CC[C@@]1(C)[C@H](C)CCC(=O)[C@@H]1C`, for which the IC50 was > 40 µM (inactive).

Take `O=C1Cc2ccccc2C(=O)N1Cc1cccc(Cl)c1`: the pIC50 is 5.39.

Regarding `O=C(c1ccc2cc[nH]c2c1)N1CCC(Nc2cccnc2)C1` (stereo not drawn), the IC50 was > 40 µM (inactive).

Turning to `COC(=O)c1ccccc1NC(=O)CSc1nnc(CNc2ccc(F)cc2)n1CC1CCCO1` (stereo not drawn), the IC50 is > 40 µM (inactive).

For `Cc1ccc(-n2c(=O)[nH]c3c(C(N)=O)nc(-c4ccc(OCc5ccccc5)cc4)nc32)cc1`, the IC50 is > 40 µM (inactive).

`COc1ccc(C2/C(=C(\O)c3ccccc3)C(=O)C(=O)N2c2cccc(C(F)(F)F)c2)cc1` (stereo not drawn): the IC50 is > 40 µM (inactive).

Turning to `CCC(=O)N1c2ccccc2NC2=C(C(=O)CC(c3ccccc3OCc3ccccc3)C2)C1c1ccccc1` (stereo not drawn), the IC50 was > 40 µM (inactive).

As for `Cc1ccc(Cn2c(=O)c3ncccc3n(CC(=O)NCc3ccc(F)cc3)c2=O)cc1`, the IC50 is > 40 µM (inactive).

As for `Cc1ccc(C(=O)O)cc1NC(=O)C(Sc1cccc(NC(=O)c2cccc(Cl)c2)c1)c1ccccc1` (stereo not drawn), the IC50 is > 40 µM (inactive).

For `O=C(CCn1c(=O)c2sccc2n(Cc2ccc([N+](=O)[O-])cc2)c1=O)NCc1ccccc1`, the IC50 is > 40 µM (inactive).

As to `Cc1ccc(NC(=O)CSc2nnc(-c3n[nH]c4c3CCC4)n2N)cc1C`, the IC50 was > 40 µM (inactive).

For the molecule `O=C(c1cnccn1)N1CC[C@@H]2CNS(=O)(=O)[C@@H]2CC1`, the IC50 was > 40 µM (inactive).

Regarding `Cc1ccc(CS(=O)(=O)c2cn(CC(=O)NCCc3ccccc3)c3ccccc23)cc1`, the IC50 is > 40 µM (inactive).

Consider `CCn1cc2c(n1)c(=O)n(Cc1ccccc1)c(=O)n2CC(=O)Nc1ccc(OC)cc1`, for which the IC50 was > 40 µM (inactive).

Regarding `Cc1ccc(Nc2nc(O)c(CC(=O)Nc3ccc(C)cc3C)s2)cc1`, the IC50 was > 40 µM (inactive).

For `COc1ccccc1C(=O)Nc1ccc(-c2nc3ccccc3o2)c(O)c1`, the IC50 was > 40 µM (inactive).

For `O=C(CSc1nc2ccccc2[nH]1)Nc1ccc2c(c1)OCCO2`, the IC50 is > 40 µM (inactive).

Take `O=c1c(O)c(-c2ccc(O)c(O)c2)oc2cc(O)cc(O)c12`: the pIC50 was 6.10.

Consider `O=C(CCSc1nnnn1-c1ccccc1)Nc1cc(C(F)(F)F)ccc1Cl`, for which the IC50 was > 40 µM (inactive).

As for `CCOc1ccc2c(c1)c(=O)c(C(=O)c1ccccc1)cn2CC(=O)Nc1ccc(Cl)cc1`, the pIC50 is 4.49.

As to `O=c1[nH]c(C2CCN(S(=O)(=O)c3ccc(S(=O)(=O)NC4CCCCC4)cc3)CC2)nc2c1nnn2Cc1c(Cl)cccc1Cl`, the IC50 is > 40 µM (inactive).

Turning to `O=c1oc2c3c(c(Cl)cc2c2c1CCCC2)OCN(Cc1ccccc1)C3`, the IC50 was > 40 µM (inactive).

Turning to `O=C(CNC(=O)c1ccc2nc(-n3cccc3)sc2c1)NCc1cccc(Cl)c1`, the IC50 was > 40 µM (inactive).

In the case of `CCCn1c(=O)c2sccc2n2c(CCC(=O)N3CCc4ccccc4C3)nnc12`, the IC50 was > 40 µM (inactive).

On to `Cc1occ2c1C(=O)c1c(O)ccc(O)c1C2`, for which the pIC50 was 6.18.

Turning to `COC(=O)Nc1cccn(Cc2c(Cl)cccc2Cl)c1=O`, the IC50 was > 40 µM (inactive).

In the case of `COc1ccc(CCNC(=O)CSc2cn(CCNC(=O)c3ccccc3C)c3ccccc23)cc1OC`, the IC50 is > 40 µM (inactive).

Turning to `CC(C)c1ccc(NC(=O)c2cc(-c3cccnc3)n[nH]2)cc1`, the pIC50 was 4.54.

Take `CC(=O)c1ccc(NC(=O)C2CC(=O)Nc3nc(SCc4ccccc4)nn32)cc1` (stereo not drawn): the IC50 was > 40 µM (inactive).

Consider `O=C(Cn1c(=O)n(CC2CCC(C(=O)NC3CCCC3)CC2)c(=O)c2ccccc21)NCCC1=CCCCC1` (stereo not drawn), for which the IC50 was > 40 µM (inactive).

On to `Cc1cc(-c2nnc(SCC(=O)Nc3ccc(Br)c(C)c3)n2N)n[nH]1`, for which the IC50 is > 40 µM (inactive).

As to `COc1ccc(CNC(=O)C2CCCN(S(=O)(=O)Cc3ccc(Cl)cc3)C2)cc1` (stereo not drawn), the IC50 was > 40 µM (inactive).

In the case of `N#Cc1cccnc1N1CCN(C(=O)Nc2cccc3ccccc23)CC1`, the IC50 is > 40 µM (inactive).

On to `O=C(Nc1nnc(-c2cccc([N+](=O)[O-])c2)o1)C1CCN(S(=O)(=O)c2ccc3c(c2)CCC3)CC1`, for which the IC50 is > 40 µM (inactive).

Consider `O=C(Cn1cc(C(=O)c2ccccc2)c(=O)c2cc(F)ccc21)Nc1ccc2c(c1)OCO2`, for which the IC50 is > 40 µM (inactive).

With `CCOC(=O)C1CCN(Cc2cc(=O)oc3cc(O)c(O)cc23)CC1`, the pIC50 was 5.89.

As for `O=C(NCc1ccco1)c1ccc(Cn2c(=O)c3sccc3n(Cc3cc(=O)n4ccccc4n3)c2=O)cc1`, the IC50 was > 40 µM (inactive).

As to `CNc1nc2c(c(=O)n1C)CN(C(=O)Nc1cccc3ccccc13)CC2`, the IC50 is > 40 µM (inactive).

Take `COc1ccc2c(c1)CCc1c-2nc2ccccc2c1N1CCOCC1`: the IC50 is > 40 µM (inactive).

On to `COc1ccc(N/C=C/c2onc(C)c2[N+](=O)[O-])c(OC)c1`, for which the IC50 is > 40 µM (inactive).

Regarding `COc1ccc(-c2nc(-c3nnn(Cc4ccc(F)cc4)c3C)no2)c(OC)c1`, the IC50 is > 40 µM (inactive).

`COc1cc(Cl)c(C)cc1NC(=O)Cn1c(=O)n(CC(=O)NCc2ccco2)c(=O)c2ccccc21`: the IC50 was > 40 µM (inactive).

As to `COc1ccc(-n2c(=O)c3ccc(C(=O)NCCc4ccccc4)cc3n(CC(=O)NCc3ccco3)c2=O)cc1`, the IC50 was > 40 µM (inactive).

For `COc1ccccc1Nc1ncc(C(=O)NCCc2ccc(Cl)cc2)c2ccccc12`, the IC50 was > 40 µM (inactive).

With `O=C(CC1C(=O)N(C2CCCC2)c2nc3ccccc3n21)Nc1ccccc1` (stereo not drawn), the IC50 was > 40 µM (inactive).
